A word on the IC50: it is the point on the concentration scale where inhibition reaches its midpoint.

One assay relates to A549. Put plainly: inhibition of proliferation of tumor cell line A549. It counts as cell-based. The settings on record: A549 human lung cancer cell line; some results are the average of multiple runs. As for the experimental part:
(§1) The biological activities of compounds I were evaluated by measuring their inhibitory effect on the proliferation of various tumor cell lines. MCF-7, A549, SKOV-3, and CCRF-CEM are human breast cancer, lung cancer, ovary cancer, and leukemia cell lines, respectively. HL-60/MX2 is a leukemia cell line resistant to mitoxantrone. A549 t12 is an A549 subline resistant to paclitaxel. CCRF-CEM/PTX, CCRF-CEM/VBL, and CCRF-CEM/VP16 are CCRF-CEM sublines resistant to paclitaxel, vinblastine, and VP-16 (etoposide), respectively. NCI/ADR (also referred to as NCI/ADR-Res) is a multi-drug resistant human breast cancer cell line.
(§2) The biological activity of compound II-A was evaluated by measuring its inhibitory effect on the proliferation of various tumor cell lines. (The characteristics of the various cell lines employed was previously described hereinabove.)
(§3) The biological activity of compounds III was evaluated by measuring their inhibitory effect on the proliferation of various tumor cell lines. The characteristics of the cells lines used has been described hereinabove.
(§4) The biological activity of compounds IV was evaluated by measuring their inhibitory effect on the proliferation of various tumor cell lines. The characteristics of the cell lines used has been discussed hereinabove.

The next assay relates to MCF-7. Briefly: inhibition of proliferation of tumor cell line MCF-7. It is filed as cell-based. The settings on record: MCF-7 human breast cancer cell line, some results are the average of multiple runs. The procedure: as §1, §2, §3, §4
A further assay concerns SKOV-3. Briefly: inhibition of proliferation of tumor cell line SKOV-3. It is filed as cell-based. The settings on record: SKOV-3 human ovary cancer cell line, some results are the average of multiple runs. As for the experimental part: as §1, §2, §3
A further assay deals with NCI/ADR. Put plainly: inhibition of proliferation of tumor cell line NCI/ADR. It counts as cell-based. The settings on record: NCI/ADR (NCI/ADR-Res) multi-drug resistant human breast cancer cell line; some results are the average of multiple runs. As for the experimental part:
as §1, §2, §3, §4

The test system of the next assay is HL-60/MX2. Briefly: inhibition of proliferation of tumor cell line HL-60/MX2. The following applies: HL-60/MX2 leukemia cell line resistant to mitoxantrone, some results are the average of multiple runs. It is filed as cell-based. As for the experimental part:
as §1, §2, §4

A further assay deals with A549 t12. Put plainly: inhibition of proliferation of tumor cell line A549 t12. The settings on record: A549 t12, A549 subline resistant to paclitaxel, some results are the average of multiple runs. It is filed as cell-based, human. As for the experimental part:
as §1, §2, §4

The next assay deals with CCRF-CEM/PTX. Put plainly: inhibition of proliferation of tumor cell line CCRF-CEM/PTX. It is filed as cell-based, human. The following applies: CCRF-CEM subline resistant to paclitaxel, some results are the average of multiple runs. As for the experimental part:
as §1, §2, §4

The next assay relates to CCRF-CEM. Put plainly: inhibition of proliferation of tumor cell line CCRF-CEM. It counts as cell-based. The following applies: CCRF-CEM human leukemia cell line; some results are the average of multiple runs. The procedure: as §1, §2, §4
The next assay deals with CCFR-CEM/VP16. Briefly: inhibition of proliferation of tumor cell line CCRF-CEM/VP16. It counts as cell-based, human. The following applies: CCRF-CEM subline resistant to VP-16 (etoposide), some results are the average of multiple runs. The procedure:
as §1, §2, §4

The test system of a further assay is CCRF-CEM/VBL. Put plainly: inhibition of proliferation of tumor cell line CCRF-CEM/VBL. The settings on record: CCRF-CEM subline resistant to vinblastine, some results are the average of multiple runs. It counts as cell-based, human. The procedure: as §1, §2, §4

For `CC/C=C\[C@H](C)[C@H](OC(N)=O)[C@@H](C)[C@H](O)[C@@H](C)C/C(C)=C\[C@H](C)[C@@H](O)[C@@H](C)/C=C\[C@@H](O)C[C@H]1CCC(=O)O1` [III-B], the IC50 in the assay with A549 was determined as 46 nM; in the assay with MCF-7 (MCF7), 6.4 nM; with SKOV-3 (SK-OV-3), 15 nM; in the assay with NCI/ADR, 730 nM.
On to `C=C/C=C\[C@H](C)[C@H](OC(N)=O)[C@@H](C)[C@H](O)[C@@H](C)C/C(C)=C\[C@H](C)[C@@H](O)[C@@H](C)/C=C(/C)[C@@H](O)C[C@@H]1OC(=O)[C@H](C)[C@@H](O)[C@H]1C` [II-A, 8-methyldiscodermolide], for which the IC50 with HL-60/MX2 (Homo sapiens, HL60/MX2) came out at 11 nM; with A549 t12 (Homo sapiens), 31 nM; in the assay on A549, 12 nM; with MCF-7 (MCF7), 7.7 nM; with CCRF-CEM/PTX (Homo sapiens) it was 42.3 nM; in the assay on CCRF-CEM it was 5.6 nM. The IC50 in the assay with CCFR-CEM/VP16 (Homo sapiens) is 9 nM; with SKOV-3 (SK-OV-3) it was 29 nM; with CCRF-CEM/VBL (Homo sapiens) it was 152 nM; in the assay with NCI/ADR, 610 nM.
(+)-Discodermolide [reference compound]: the IC50 in the assay with HL-60/MX2 is 150 nM; in the assay on A549 t12, 26.7 nM; in the assay on A549 it was 24.4 nM; in the assay on MCF-7, 14.1 nM; in the assay with CCRF-CEM/PTX it was 92.8 nM; in the assay with CCRF-CEM it was 14.8 nM. Further, the IC50 in the assay with CCFR-CEM/VP16 was 53 nM; in the assay with SKOV-3, 31.7 nM; with CCRF-CEM/VBL, 158 nM; with NCI/ADR, 247 nM.
With `CC/C=C\[C@H](C)[C@H](OC(N)=O)[C@@H](C)[C@H](O)[C@@H](C)C/C(C)=C\[C@H](C)[C@@H](O)[C@@H](C)/C=C\[C@@H](O)C[C@@H]1OC(=O)[C@H](C)[C@@H](OC)[C@H]1C` [IV-A], the IC50 was 12 nM with HL-60/MX2 (Homo sapiens, HL60/MX2); 50 nM with A549 t12 (Homo sapiens); 11 nM in the assay with A549; 5.8 nM in the assay with MCF-7 (MCF7); 65 nM in the assay on CCRF-CEM/PTX (Homo sapiens); 8.6 nM in the assay on CCRF-CEM. Also, the IC50 was determined as 12 nM with CCFR-CEM/VP16 (Homo sapiens), 209 nM in the assay with CCRF-CEM/VBL (Homo sapiens) and 140 nM in the assay on NCI/ADR.
Take `CC/C=C\[C@H](C)[C@H](OC(N)=O)[C@@H](C)[C@H](O)[C@@H](C)C/C(C)=C\[C@H](C)[C@@H](O)[C@@H](C)/C=C\[C@@H](O)C[C@@H]1OC(=O)[C@H](C)C[C@H]1C` [IV-B]: the IC50 amounted to 4.1 nM with HL-60/MX2 (Homo sapiens, HL60/MX2); 12 nM in the assay with A549 t12 (Homo sapiens); 6.5 nM in the assay on A549; 3.8 nM in the assay on MCF-7 (MCF7); 79 nM in the assay on CCRF-CEM/PTX (Homo sapiens); 4.4 nM in the assay on CCRF-CEM. In addition, the IC50 in the assay with CCFR-CEM/VP16 (Homo sapiens) was 8.4 nM; in the assay with CCRF-CEM/VBL (Homo sapiens) it was 416 nM; in the assay with NCI/ADR it was 250 nM.
For the molecule `C=C/C=C\[C@H](C)[C@H](OC(N)=O)[C@@H](C)[C@H](O)[C@@H](C)C/C(C)=C\[C@H](C)[C@@H](O)[C@@H](C)/C=C\[C@@H](O)C[C@H]1CCC(=O)O1` [III-A], the IC50 in the assay on A549 was 4.9 nM; in the assay on MCF-7 (MCF7), 2.9 nM; with SKOV-3 (SK-OV-3), 14 nM; with NCI/ADR it was 350 nM.
Regarding `C=C/C=C\[C@H](C)[C@H](OC(N)=O)[C@@H](C)[C@H](O)[C@@H](C)C/C(C)=C\[C@H](C)[C@@H](O)[C@@H](C)/C=C\[C@H](C[C@@H]1OC(=O)[C@H](C)[C@@H](O)[C@H]1C)OCOCCOC` [I-B], the IC50 in the assay on A549 t12 (Homo sapiens) turned out to be 5.8 nM; with A549, 6.7 nM; in the assay on MCF-7 (MCF7), 5.5 nM; in the assay on NCI/ADR, 140 nM.

The values above are taken from patent US7214708B2, “Synthetic discodermolide analogs” (priority 2004, dated 2007).
